# Data reported in US20220153746A1, “NITROGEN OXIDE-DONATING PDE-5 AND/OR PDE-6 INHIBITOR COMPOUNDS, AND USES THEREOF” (ILDONG PHARMACEUTICAL CO., LTD., priority 2020, published 2022).
# “And” between values parts separate entries of the source, which are not always exact repeats. Equal entries are not always repeated. Where two headings read alike, the source gives them in different places.
# Assay: TD Phase (Groups 1 and 3): plasma and ocular tissue concentrations and pharmacokinetics of Compound 18 and its metabolite Compound 4 after once daily ocular instillation of Compound 18 nanosuspension for 7 days
# Assay type: in vivo, New Zealand white rabbits
# Conditions: for Metabolite/Parent AUC Ratio: MW-corrected AUC of metabolite Compound 4 / parent Compound 18
# From the text: This example illustrates the procedures and results for the levels of Compound 18 and its metabolite Compound 4 in plasma and ocular tissues of normotensive rabbits following ocular instillation of Compound 18 once daily for 7 consecutive days.
# Twenty five (25) male New Zealand white rabbits were divided into 5 groups of varying amounts of animals per group.
# The Test article, Compound 18 was formulated as a 2% nanosuspension in DI water containing 0.2% PS80 (polyoxyethylenesorbitan, monooleate (Tween 80)) and 0.4% HPMC (hydroxypropylmethylcellulose) at pH 6.77. Referred to herein as “Compound 18 nanosuspension.”
# The study consisted of three groups (Groups 1-3) of 19 male rabbits (NZW) that underwent once daily morning ocular installation (1 eyedrop) for 7 consecutive days (Day 0-6). Groups 4-5 each consisted of 3 male rabbits (NZW) that were not dosed.
# Blood samples (1 mL) were collected from the jugular vein at the intervals set out below for each group. The samples were then inverted several times following collection and held on wet ice until centrifuged. Samples were centrifuged within 60 minutes of collection under refrigeration (set at 5° C. for 10 minutes at 2000 g.
# Group 1 (Pilot Study, terminal blood collection): blood was collected from 3 animals at 1 hour post day 7 dose of Compound 18 nanosuspension.
# Group 3 (TD Phase, terminal blood collection): blood was collected from 3 animals at 0.5 hour, 3 animals at 2 hours, 3 animals at 4 hours, and 3 animals at 8 hours post day 7 dose of Compound 18 nanosuspension.
# Group 1 (Pilot Study): 3 animals were terminated at 1 hour post Day 7 dose of Compound 18 nanosuspension. Following blood collection and termination, ocular tissues (aqueous humor, vitreous humor, cornea, iris/ciliary body, lens, optic nerve, retina, sclera/choroid, and trabecular meshwork) were collected from each animal and the tissue weights were recorded. Note: sclera and choroid were collected together. Iris and ciliary body were collected together.
# Group 3 (TD Phase): 3 animals were terminated at 0.5 hour, 3 animals at 2 hours, 3 animals at 4 hours, and 3 animals at 8 hours post Day 7 dose of Compound 18 nanosuspension. Following blood collection and termination, ocular tissues (aqueous humor, vitreous humor, cornea, iris/ciliary body, lens, optic nerve, retina, sclera/choroid, and trabecular meshwork) were collected from each animal and the tissue weights were recorded. Note: sclera and choroid were collected together. Iris and ciliary body were collected together.
# Plasma and tissue samples from treated animals (Groups 1-3) were analyzed for Compound 18 and its metabolite Compound 4 concentrations by LC-MS/MS.
# Pharmacokinetic analysis was conducted using WinNonlin Version 6.2.1 (Pharsight, Mountain View, Calif.), operating as a validated software system. Noncompartmental analysis was conducted using the extravascular administration model for ocular instillation dosing.
# The peak plasma and ocular tissue concentration, time to achieve peak plasma and ocular tissue concentration, half-life, and area under the plasma and ocular tissue concentration-time curve (Cmax, Tmax, T1/2, and AUC) were calculated from the TD phase combined with the pilot study mean animal plasma and ocular tissue concentrations for each sampling time/dose group for Compound 18 and its metabolite Compound 4.
# BA Assay: Quantitation Range 0.05 to 100 ng/mL for Compound 18, 0.15 to 100 ng/mL for Compound 4.
# 3. Pipet 50 μL of each type of pre-spiked ocular tissue samples (AH/VH) for QC samples, 50 μL of incurred aqueous humor, and vitreous humor sample (if applicable) into a 96 well plate.
# Ocular Tissues Homogenate Preparation: Incurred rabbit ocular tissues were weighed in Genogrinder tubes (plastic tubes with small beads) at the time of removal from the animal and stored frozen (<−70° C.) until analysis. The rabbit incurred ocular tissues were thawed on wet ice. […]
# [1] = TD Phase, Group 1, 1 h, individual animals
# [2] = TD Phase, Group 3, 0.5 h, individual animals
# [3] = TD Phase, Group 3, 2 h, individual animals
# [4] = TD Phase, Group 3, 8 h, individual animals
# [5] = male, New Zealand white, rabbit, topical or ocular, 0.8 mg/kg/day, aqueous humor, Day 7, from mean concentrations
# [6] = male, New Zealand white, rabbit, topical or ocular, 0.8 mg/kg/day, cornea, Day 7, from mean concentrations
# [7] = male, New Zealand white, rabbit, topical or ocular, 0.8 mg/kg/day, iris/ciliary body, Day 7, from mean concentrations
# [8] = male, New Zealand white, rabbit, topical or ocular, 0.8 mg/kg/day, lens, Day 7, from mean concentrations
smiles,measurement,setting,value
"CCCc1nn(C)c2c(=O)[nH]c(-c3cc(S(=O)(=O)N4CC(CCCO)C4)ccc3OCC)nc12 [Compound 4, 5-(2-ethoxy-5-((3-(3-hydroxypropyl)azetidin-1-yl)sulfonyl)phenyl)-1-methyl-3-propyl-1,6-dihydro-7H-pyrazolo[4,3-d]pyrimidin-7-one]",Metabolite/Parent AUC Ratio,"Aqueous Humor, Day 7",21700
same,AUC0-8,"Cornea, Day 7, Compound 18 0.8 mg/kg ocular instillation once daily, Groups 1 and 3",10096 ng·h/g
same,Metabolite/Parent AUC Ratio,"Cornea, Day 7",52.7
same,AUC0-8,"Iris/Ciliary Body, Day 7, Compound 18 0.8 mg/kg ocular instillation once daily, Groups 1 and 3",1795 ng·h/g
same,Metabolite/Parent AUC Ratio,"Iris/Ciliary Body, Day 7",13.1
same,AUC0-8,"Lens, Day 7, Compound 18 0.8 mg/kg ocular instillation once daily, Groups 1 and 3",68.7 ng·h/g
same,AUC0-8,"Optic Nerve, Day 7, Compound 18 0.8 mg/kg ocular instillation once daily, Groups 1 and 3",159 ng·h/g
same,Metabolite/Parent AUC Ratio,"Plasma, Day 7",6.72
same,AUC0-8,"Retina, Day 7, Compound 18 0.8 mg/kg ocular instillation once daily, Groups 1 and 3",213 ng·h/g
same,AUC0-8,"Sclera/Choroid, Day 7, Compound 18 0.8 mg/kg ocular instillation once daily, Groups 1 and 3",1494 ng·h/g
same,Compound 4 Plasma Conc.,[1],0.412 ng/mL and 1.14 ng/mL and 0.839 ng/mL
same,Final Compound 4 Sclera/Choroid Conc.,[1],171 ng/g and 240 ng/g
same,Final Compound 4 Retina Conc.,"TD Phase, Group 1, 1 h, individual animals, BQL set to 0",25.6 ng/g and 90.7 ng/g and 34.8 ng/g
same,Compound 4 Sclera/Choroid Homogenate Conc.,"TD Phase, Group 1, 1 h, individual animals, homogenate dilution factor 8",21.4 ng/mL and 30.0 ng/mL
same,Compound 4 Plasma Conc.,[2],1.03 ng/mL and 0.812 ng/mL
same,Final Compound 4 Sclera/Choroid Conc.,[2],154 ng/g and 142 ng/g and 331 ng/g
same,Compound 4 Sclera/Choroid Homogenate Conc.,"TD Phase, Group 3, 0.5 h, individual animals, homogenate dilution factor 8",19.3 ng/mL and 17.7 ng/mL and 41.4 ng/mL
same,Compound 4 Plasma Conc.,[3],BQL (BQL = Below lower limit of quantitation (0.0500 ng/mL for Compound 18 and 0.150 ng/mL for Compound 4))
same,Final Compound 4 Sclera/Choroid Conc.,[3],121 ng/g and 234 ng/g and 88.0 ng/g
same,Final Compound 4 Retina Conc.,"TD Phase, Group 3, 2 h, individual animals, BQL set to 0",118 ng/g and 23.4 ng/g and 11.4 ng/g
same,Compound 4 Sclera/Choroid Homogenate Conc.,"TD Phase, Group 3, 2 h, individual animals, homogenate dilution factor 8",15.1 ng/mL and 29.2 ng/mL and 11.0 ng/mL
same,Compound 4 Retina Homogenate Conc.,"TD Phase, Group 3, 2 h, individual animals, homogenate dilution factor 20 (164 for animal 207671)",0.719 ng/mL and 1.17 ng/mL and 0.568 ng/mL
same,Compound 4 Plasma Conc.,"TD Phase, Group 3, 4 h, individual animals",BQL (BQL = Below lower limit of quantitation (0.0500 ng/mL for Compound 18 and 0.150 ng/mL for Compound 4))
same,Final Compound 4 Retina Conc.,"TD Phase, Group 3, 4 h, individual animals, BQL set to 0",16.7 ng/g and 34.6 ng/g and 14.0 ng/g
same,Compound 4 Retina Homogenate Conc.,"TD Phase, Group 3, 4 h, individual animals, homogenate dilution factor 20",0.835 ng/mL and 1.73 ng/mL and 0.702 ng/mL
same,Compound 4 Plasma Conc.,"TD Phase, Group 3, 8 h, Mean, BQL set to 0",BQL (BQL = Below lower limit of quantitation (0.0500 ng/mL for Compound 18 and 0.150 ng/mL for Compound 4))
same,Compound 4 Plasma Conc.,[4],BQL (BQL = Below lower limit of quantitation (0.0500 ng/mL for Compound 18 and 0.150 ng/mL for Compound 4))
same,Compound 4 Vitreous Humor Conc.,[4],BQL (BQL = Below lower limit of quantitation (0.0500 ng/mL for Compound 18 and 0.150 ng/mL for Compound 4))
same,Final Compound 4 Retina Conc.,"TD Phase, Group 3, 8 h, individual animals, BQL set to 0",8.90 ng/g and 0 ng/g and 8.34 ng/g
same,Compound 4 Retina Homogenate Conc.,"TD Phase, Group 3, 8 h, individual animals, homogenate dilution factor 20",BQL^a (BQL = Below lower limit of quantitation (0.0500 ng/mL for Compound 18 and 0.150 ng/mL for Compound 4)) and 0.417 ng/mL
same,tissue of highest concentration,TD phase plasma and ocular tissues,highest in cornea
same,AUC0-8,"Trabecular Meshwork, Day 7, Compound 18 0.8 mg/kg ocular instillation once daily, Groups 1 and 3",533 ng·h/g
same,Metabolite/Parent AUC Ratio,"Vitreous Humor, Day 7",447
same,AUC0-8,"cornea, Day 7, from mean concentrations",10096 ng·h/g
same,AUC0-8,"iris/ciliary body, Day 7, from mean concentrations",1795 ng·h/g
same,AUC0-8,"lens, Day 7, from mean concentrations",68.7 ng·h/g
same,Metabolite/parent AUC ratio (Compound 4 vs Compound 18),"lens, TD phase",63.0
same,concentration at 0.5 h,"male, New Zealand white, rabbit, plasma, other: ocular instillation, 0.8 mg/kg/day, TD Phase, Group 3, 0.5 h, Mean, BQL set to 0, read-out: Compound 4 Plasma Conc.",1.02 ng/mL
same,concentration at 0.5 h,"male, New Zealand white, rabbit, plasma, other: ocular instillation, 0.8 mg/kg/day, TD Phase, Group 3, 0.5 h, individual animals, read-out: Compound 4 Plasma Conc.",1.22 ng/mL
same,concentration at 8 h,"male, New Zealand white, rabbit, retina homogenate, other: ocular instillation (eye drop), 0.798 mg/kg/day, TD Phase, Group 3, 8 h, individual animals, homogenate dilution factor 20, read-out: Compound 4 Retina Homogenate Conc.",0.445 ng/mL
same,concentration at 1 h,"male, New Zealand white, rabbit, retina, other: ocular instillation (eye drop), 0.798 mg/kg/day, TD Phase, Group 1, 1 h, Mean, read-out: Final Compound 4 Retina Conc.",50.2 ng/g
same,concentration at 2 h,"male, New Zealand white, rabbit, retina, other: ocular instillation (eye drop), 0.798 mg/kg/day, TD Phase, Group 3, 2 h, Mean, read-out: Final Compound 4 Retina Conc.",50.9 ng/g
same,concentration at 4 h,"male, New Zealand white, rabbit, retina, other: ocular instillation (eye drop), 0.798 mg/kg/day, TD Phase, Group 3, 4 h, Mean, read-out: Final Compound 4 Retina Conc.",21.8 ng/g
same,concentration at 8 h,"male, New Zealand white, rabbit, retina, other: ocular instillation (eye drop), 0.798 mg/kg/day, TD Phase, Group 3, 8 h, Mean, read-out: Final Compound 4 Retina Conc.",5.75 ng/g
same,concentration at 1 h,"male, New Zealand white, rabbit, sclera/choroid homogenate, other: ocular instillation (eye drop), 0.798 mg/kg/day, TD Phase, Group 1, 1 h, individual animals, homogenate dilution factor 8, read-out: Compound 4 Sclera/Choroid Homogenate Conc.",17 ng/mL
same,concentration at 1 h,"male, New Zealand white, rabbit, sclera/choroid, other: ocular instillation (eye drop), 0.798 mg/kg/day, TD Phase, Group 1, 1 h, Mean, read-out: Final Compound 4 Sclera/Choroid Conc.",182 ng/g
same,concentration at 1 h,"male, New Zealand white, rabbit, sclera/choroid, other: ocular instillation (eye drop), 0.798 mg/kg/day, TD Phase, Group 1, 1 h, individual animals, read-out: Final Compound 4 Sclera/Choroid Conc.",136 ng/g
same,concentration at 0.5 h,"male, New Zealand white, rabbit, sclera/choroid, other: ocular instillation (eye drop), 0.798 mg/kg/day, TD Phase, Group 3, 0.5 h, Mean, read-out: Final Compound 4 Sclera/Choroid Conc.",209 ng/g
same,concentration at 2 h,"male, New Zealand white, rabbit, sclera/choroid, other: ocular instillation (eye drop), 0.798 mg/kg/day, TD Phase, Group 3, 2 h, Mean, read-out: Final Compound 4 Sclera/Choroid Conc.",148 ng/g
same,Cmax,[5],124 ng/mL
same,Tmax,[5],1 h
same,half-life,[5],1.95 h
same,AUC(0-t),"male, New Zealand white, rabbit, topical or ocular, 0.8 mg/kg/day, aqueous humor, Day 7, from mean concentrations, read-out: AUC0-8",314 ng·h/mL
same,Cmax,[6],3600 ng/g
same,Tmax,[6],1 h
same,half-life,[6],2.63 h
same,Cmax,[7],980 ng/g
same,Tmax,[7],1 h
same,half-life,[7],2.11 h
same,Cmax,[8],18.1 ng/g
same,Tmax,[8],1 h
same,half-life,[8],2.25 h
